In patent publication US8501162B2, “Compositions and methods for the skin and hair” (The Boots Company PLC, priority 2007, dated 2013):

Experiment: ABEL antioxidant assay with peroxynitrite, raw materials and combinations of three raw materials in solvent
Assay type: biochemical
Conditions: for ABEL-RAC contribution in combination: ABEL-RAC of pure ingredient x percentage of ingredient in combination
Source text: The ABEL antioxidant assay is an in vitro assay for testing the antioxidant capacity of a material. It utilises a photoprotein, which emits light when challenged with various free radical species, eg peroxynitrite, hydroxyl radicals or halogenated oxidants.
If a material is challenged with one or more of these free radical species, then any antioxidant in the sample will compete with the photoprotein. The result of this competition is a reduction in the amount of light emitted and sometimes, in addition, a delay in the time at which the maximum light emitted occurs. A light response curve can be produced for each sample tested, and EC50 and ABEL-RAC values calculated. The EC50 (effective concentration) is the concentration (normalised to g/L or mg/mL) of a material that reduces the light emitted by 50%. This reduction in light is a measure of the antioxidant capacity of the test material. The reciprocal of the EC50 values multiplied by 100 is referred to as the ABEL-RAC score.
The ABEL® antioxidant assay with peroxynitrite is the assay of choice to assess total antioxidant capacity because peroxynitrite attacks almost all compounds, including hydrophobic and hydrophilic antioxidants. Pro-oxidants are also identified with the peroxynitrite assay. Other ABEL® antioxidant assays use superoxide (produced as a single bolus in high concentration as well as enzymatically), hydroxyl radical and hyperchlorous acid (the halogenated oxidant assay). Pro-oxidants are not observed with the hydroxyl radical and halogenated oxidant assays. The hydroxyl radical assay is recommended when samples are water-soluble and the halogenated assay when the samples are soluble in organic solvent. This is because solvents such as ethanol, methanol, acetone and DMSO are good quenchers of hydroxyl radicals, and therefore the organic solvents contribute to the antioxidant effect shown by the sample. Organic solvents have little effect, however, on the halogenated oxidant assay.
• 1. The antioxidant agents (referred to as raw materials (RM) hereafter) were first dissolved in an appropriate solvent as detailed in Table 1. • 2. Combinations of three raw materials were prepared for testing by combining one part each of three raw material dilutions, at the concentrations specified in Table 2. • 3. In Table 2 each combination is given a combination number and each combination number is further described as A, B or C, where the concentrations of the raw material dilutions used in B are ten times greater that A, and the concentrations used in C are ten times greater than B (one hundred times greater than A). • 4. The concentrations of raw materials provided in Table 2 are the final concentrations of those materials in the ABEL® antioxidant assay.
Raw material combinations 1, 3, 4, 8 and 9 were assayed at three additional concentrations which are dilutions of concentration A (see Table 2). The details are contained in Table 3.

COc1cc2c(cc1O)CCC(C)(C)O2 [RM10, dimethylmethoxy chromanol]
ABEL-RAC contribution in combination (Combination 1): 35221 | ABEL-RAC contribution in combination (Combination 3): 10031 | ABEL-RAC contribution in combination (Combination 4): 9606 | ABEL-RAC contribution in combination (Combination 8): 4832 | Effect of solvent (ethanol rather than IMS) on ABEL peroxynitrite assay result (diluted with IMS versus diluted with ethanol, FIG. 19): does not make an appreciable difference | EC50 mg/mL of pure ingredient (pure raw material, ABEL peroxynitrite assay): 0.0018 mg/mL | ABEL-RAC peroxynitrite of pure ingredient (pure raw material, ABEL-RAC = reciprocal of EC50 x 100): 88053
